Marks after values point to notes of the source that are not given here.
Key:
[1] = tested on: rhythmic bladder contraction; assay: Effect on the rhythmic bladder contraction of rats (inhibition of micturition reflex); assay type: in vivo, rat; conditions: for Inhibition rate of the rhythmic contraction frequency of the bladder (%): anesthetized SD-IGS male rats, 120 minutes following administration; for Inhibitory activity on the frequency of the rhythmic bladder contraction (in words): rats
Protocol: The inhibitory effect on the micturition reflex was evaluated by the effect on the rhythmic bladder contraction according to the method of […] et al. (Rinshyoseiri 5, 540-547 (1975)). SD-IGS strain male rats were anesthetized by intraperitonial administration of urethane (1 g/kg). After exposing the bladder of the animal through an incision of the abdomen, a small incision was made on the top of the bladder from where a rubber balloon was inserted. The balloon was attached to a polyethylene tube connecting to a three way stopcock. The rest two ways of the stopcock were connected to a syringe for infusing water to the balloon and a transducer to measure the internal pressure of the bladder. The test animal was left for a while and then water was infused into the balloon until rhythmic contraction started. The change in the internal pressure of the bladder was recorded continuously by a polygraph. Drugs were dissolved in de-ionized water and administered through a catheter inserted in the duodenum. The effect of the drug was expressed as the inhibition ratio of the frequency of the rhythmic contraction of the bladder obtained by following formula. Inhibition rate (%)=100-{the frequency of the rhythmic contraction during 120 minutes following the administration (converted to the frequency per unit time)/the frequency of the rhythmic contraction 20 minutes immediately before the administration (converted to the frequency per unit time)×100}

[2] = Measurement of bioavailability by oral administration in rats; assay type: in vivo, rat; conditions: for Bioavailability (%): 6.25 mg/kg oral vs intravenous, ratio of AUC
Protocol: The intravenous administration group and the oral administration group consisted of 3 rats each (6 week-old male SD-IGS strain (Japan Charles River Co.)).
Each test drug was dissolved in physiological saline or ultra-pure water and administered to the rats intravenously or orally at 6.25 mg/kg. The blood samples were collected periodically and the plasma were prepared by the routine procedures. After deproteinization, the concentration of each test drug was measured by the LC/ESI(+) SRM method (liquid chromatography/electrospray-ionization (+) selected reaction monitoring method) and the bioavailability was calculated as the ratio (percent) of AUC (area under the blood concentration-time curve) of the oral administration and AUC of the intra-venous administration.

[3] = tested on: sleep-inducing symptoms (drowsiness); assay: Observation of sleep-inducing symptoms in dogs after oral administration; assay type: in vivo, dog; conditions: male Beagle dogs
Protocol: Male dogs (Beagles) were orally administered with capsules filled with the test drug 1 and the symptoms were observed. The dosages were 3 mg/kg, 10 mg/kg, 30 mg/kg and 100 mg/kg.

[4] = biological target: T1, human serotonin 1A receptor (Homo sapiens, UniProt P08908); assay: Serotonin 1A antagonism activity: affinity to the human serotonin 1A receptor in transfected CHO cells; assay type: binding; conditions: 10^−6 M test drug, 0.3 nM 8-OH-DPAT, CHO cells transfected with the human serotonin 1A receptor gene
T1 construct: expressed in transfected cells; host or cells: CHO cells
T1 sequence (P08908 1-422): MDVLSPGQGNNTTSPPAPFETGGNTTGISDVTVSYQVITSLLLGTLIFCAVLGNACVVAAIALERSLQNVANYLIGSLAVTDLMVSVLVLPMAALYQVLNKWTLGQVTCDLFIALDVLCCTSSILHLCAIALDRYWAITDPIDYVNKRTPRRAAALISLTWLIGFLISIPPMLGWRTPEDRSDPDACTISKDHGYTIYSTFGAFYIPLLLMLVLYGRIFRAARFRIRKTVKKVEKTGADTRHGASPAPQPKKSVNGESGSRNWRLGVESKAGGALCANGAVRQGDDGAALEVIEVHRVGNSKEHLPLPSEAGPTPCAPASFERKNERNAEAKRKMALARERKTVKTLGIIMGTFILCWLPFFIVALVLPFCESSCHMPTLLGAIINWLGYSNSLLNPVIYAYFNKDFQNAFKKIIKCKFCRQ
Protocol: The affinity of the test drug 1 to the human serotonin 1 A receptor was measured according to the method by Mulheron et al. (J. G. Mulheron et al., J. Biol. Chem., 269, 12954-12962 (1994)) by using the CHO cells transfected with the human serotonin 1A receptor gene.

[5] = Hygroscopic evaluation at 75% relative humidity; assay type: physicochemical; conditions: for Weight change (mg) in 75% relative humidity: 50 mg sample; for Increase in weight (hygroscopicity, in words): 75% relative humidity for 26 days
Source text: Fifty mg of the each test sample was weighed exactly and placed in a closed container in which the relative humidity was kept at 75% and the bottom chamber was filled with saturated brine.

[6] = intra-duodenal administration of 6.25 mg/kg
[7] = oral capsule, group of more than 10 mg/kg

Question: Which “Inhibition rate of the rhythmic contraction frequency of the bladder (%)” value (from here on “Inhibition rate … (%)”) ([1]; 12.5 mg/kg intra-duodenal) does the source give for CC(C)c1ccc(CN2CCN(c3ccccc3)CC2)c(=O)c(OCc2ccccc2)c1.O=C(O)/C=C/C(=O)O [Control drug, 2-benzyloxy-4-isopropyl-7-[4-phenylpiperazinomethyl]-2,4,6-cycloheptatrien-1-one 1 fumarate, reference compound] here?
Answer: 4.81 +/− 4.09 (n = 6) %

Question: What about the “Inhibitory activity on the frequency of the rhythmic bladder contraction (in words)” value ([1]; intra-duodenal, dose of 12.5 mg/kg) of the same compound?
Answer: did not show significant activity

Question: And the “Bioavailability (%)” value [2]?
Answer: 6%

Question: What does the source list for COc1cc(C(C)C)ccc(CN2CCN(c3ncccn3)CC2)c1=O.Cl [Test drug 1, 4-isopropyl-2-methoxy-7-[4-(2-pyrimidyl)piperazinomethyl]-2,4,6-cycloheptatrien-1-one 1 hydrochloride]?
Answer: Inhibition rate of the rhythmic contraction frequency of the bladder (%) ([1]; 3.13 mg/kg intra-duodenal): 43.48%; Inhibition rate of the rhythmic contraction frequency of the bladder (%) ([1]; 6.25 mg/kg intra-duodenal): 48.89 +/− 5.43* %; Inhibitory activity on the frequency of the rhythmic bladder contraction (in words) [1, 6]: marked inhibitory activity; Symptoms after oral administration ([3]; oral capsule, 3 mg/kg): no abnormal symptom was recognized; Drowsiness [3, 7]: drowsiness was observed; Time to drowsiness after administration [3, 7]: 20 to 30 min; Duration of drowsiness ([3]; oral, 30 mg/kg): 142 min; Duration of drowsiness ([3]; oral, 100 mg/kg): 318 min; Abnormal behavior other than drowsiness ([3]; oral, 3-100 mg/kg): No abnormal behavior other than drowsiness was observed; Drug concentration in the plasma ([3]; oral, 3-100 mg/kg): increased dose-dependently; Inhibition of the binding of 8-OH-DPAT to the human serotonin 1A receptor [4]: 77%; Bioavailability (%) ([2]; hydrochloride, 6.25 mg/kg): 57%; Plasma concentration in rats administered orally ([2]; oral 6.25 mg/kg): ~10^−6 M

Question: Which “Inhibition rate … (%)” value ([1]; 6.25 mg/kg intra-duodenal) does the source give for CC(C)c1ccc(CN2CCN(c3ncccn3)CC2)c(=O)c(O)c1.Cl [Test drug 2, 2-hydroxy-4-isopropyl-7-[4-(2-pyrimidyl)piperazinomethyl]-2,4,6-cycloheptatrien-1-one 1 hydrochloride] here?
Answer: 26.84 +/− 5.33 (n = 4) %

Question: What about the “Inhibition rate … (%)” value ([1]; 12.5 mg/kg intra-duodenal) of the same compound?
Answer: 59.08 +/− 3.18* (n = 3) %

Question: And the “Inhibitory activity on the frequency of the rhythmic bladder contraction (in words)” value [1, 6]?
Answer: marked inhibitory activity

Question: And the “Bioavailability (%)” value ([2]; hydrochloride, 6.25 mg/kg)?
Answer: 31%

Question: With COc1cc(C(C)C)ccc(CN2CCN(c3ncccn3)CC2)c1=O.O=C(O)C(O)C(O)C(=O)O.O=C(O)C(O)C(O)C(=O)O [Test sample 1, 4-isopropyl-2-methoxy-7-[4-(2-pyrimidyl)piperazinomethyl]-2,4,6-cycloheptatrien-1-one 2 DL-tartrate] as the compound, how does the “Weight change (mg) in 75% relative humidity” value ([5]; storage time 0 hours) read?
Answer: 0.0 mg

Question: And the “Weight change (mg) in 75% relative humidity” value ([5]; storage time 2 hours)?
Answer: 0.2 mg

Question: And the “Weight change (mg) in 75% relative humidity” value ([5]; storage time 4 hours)?
Answer: 0.2 mg

Question: And the “Weight change (mg) in 75% relative humidity” value ([5]; storage time 6 hours)?
Answer: 0.1 mg

Question: And the “Weight change (mg) in 75% relative humidity” value ([5]; storage time 103 hours)?
Answer: 0.1 mg

Question: What about the “Weight change (mg) in 75% relative humidity” value ([5]; storage time 170 hours) of the same compound?
Answer: 0.1 mg

Question: What about the “Weight change (mg) in 75% relative humidity” value ([5]; storage time 26 days) of the same compound?
Answer: 0.1 mg

Question: What about the “Increase in weight (hygroscopicity, in words)” value [5] of the same compound?
Answer: No substantial increase

Question: With COc1cc(C(C)C)ccc(CN2CCN(c3ncccn3)CC2)c1=O.O=C(O)/C=C/C(=O)O [Test sample 2, 4-isopropyl-2-methoxy-7-[4-(2-pyrimidyl)piperazinomethyl]-2,4,6-cycloheptatrien-1-one 1 fumarate] as the compound, how does the “Weight change (mg) in 75% relative humidity” value ([5]; storage time 0 hours) read?
Answer: 0.0 mg

Question: And the “Weight change (mg) in 75% relative humidity” value ([5]; storage time 2 hours)?
Answer: 0.3 mg

Question: What about the “Weight change (mg) in 75% relative humidity” value ([5]; storage time 4 hours) of the same compound?
Answer: 0.4 mg

Question: What about the “Weight change (mg) in 75% relative humidity” value ([5]; storage time 6 hours) of the same compound?
Answer: 0.1 mg

Question: And the “Weight change (mg) in 75% relative humidity” value ([5]; storage time 103 hours)?
Answer: 0.1 mg

Question: What about the “Weight change (mg) in 75% relative humidity” value ([5]; storage time 170 hours) of the same compound?
Answer: 0.2 mg

Question: What about the “Weight change (mg) in 75% relative humidity” value ([5]; storage time 26 days) of the same compound?
Answer: 0.2 mg

Question: What about the “Increase in weight (hygroscopicity, in words)” value [5] of the same compound?
Answer: No substantial increase

Reference: US20050130982A1, “Oral therapeutic or preventative drugs for pollakiuria and urinary incontinence and oral sleep inducers, containing tropolone derivatives” (Nippon Kayaku Kabushiki Kaisha, priority 2002, published 2005)
